Measurements taken from US11014915B2, “Selective estrogen receptor degrader” (SUN PHARMA ADVANCED RESEARCH COMPANY LIMITED, priority 2019, dated 2021).

What was measured:
[1] = target: T1, ER-α in MCF-7 cells harboring ER wild type (Homo sapiens, UniProt P03372); experiment: ER-α degradation (SERD) assay, MCF-7 wild type; assay type: cell-based; conditions: MCF-7 Wt, 1 nM; for % of ER-α remaining at 1 nM: 4 days, western blot, vehicle control as 100%
T1 construct: evaluated in MCF-7 cells harboring ER wild type; endogenous in cells; host or cells: MCF-7
T1 sequence (P03372 1-595): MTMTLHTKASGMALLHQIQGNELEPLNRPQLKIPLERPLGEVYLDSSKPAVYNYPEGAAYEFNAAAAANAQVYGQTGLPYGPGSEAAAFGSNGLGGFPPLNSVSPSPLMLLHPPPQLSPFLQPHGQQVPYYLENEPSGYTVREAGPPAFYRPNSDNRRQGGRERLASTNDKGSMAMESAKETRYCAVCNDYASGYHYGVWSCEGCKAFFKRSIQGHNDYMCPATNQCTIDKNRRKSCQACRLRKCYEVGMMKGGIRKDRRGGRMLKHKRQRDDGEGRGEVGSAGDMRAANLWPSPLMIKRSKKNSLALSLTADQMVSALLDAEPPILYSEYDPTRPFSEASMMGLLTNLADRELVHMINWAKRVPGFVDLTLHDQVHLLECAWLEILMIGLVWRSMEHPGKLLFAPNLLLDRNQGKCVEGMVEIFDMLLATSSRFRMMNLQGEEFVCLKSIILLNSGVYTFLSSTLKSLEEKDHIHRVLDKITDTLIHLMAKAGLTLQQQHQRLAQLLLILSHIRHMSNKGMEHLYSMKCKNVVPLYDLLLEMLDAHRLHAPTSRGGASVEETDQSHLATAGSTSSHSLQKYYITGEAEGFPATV
Protocol: Selective Estrogen Receptor Degradation (SERD) Assay:
The SERD activity for the test compounds was evaluated in MCF-7 cells harboring ER wild type, and MCF-7 cells harboring mutant ER (WT/D538G and WT/Y537S). Briefly, cells were plated in phenol red free RPMI1640 medium supplemented with 5% charcoal stripped fetal bovine serum. The seeding density was 40000 cells/well for MCF-7 WT and MCF-7 D538G and 50000 cells/well MCF-7 Y537S in a 48-well plate. Following overnight incubation, the cells were treated with varying concentrations of test compounds (final concentration: 1000 nM to 0.01 nM, 0.1% DMSO) for 4 days. The cells were lysed using PBS supplemented with 1 mM EDTA, 0.5% Triton X-100, 5 mM NaF, 6 M urea, and 1× Protease inhibitor cocktail. The lysate was analyzed for ER alpha protein using western blot. For the western blot, the cell lysate (12.5-40 μg total protein) was resolved on a 10% SDS PAGE and transferred onto a PVDF membrane. The blots were blocked using 5% skim milk powder in 0.1% PBS-T for 1 hour at room temperature, followed by co-incubation with rabbit anti-human β-actin antibody and rabbit anti-human ERα antibody for 2 hours at room temperature. The blots were subsequently probed with anti-rabbit IgG-HRP conjugate as secondary antibody for 1 hour at room temperature. The blots were developed by using West Pico Super Signal Chemiluminescence substrate and the bands were processed for densitometry analysis using Image Lab software (BioRad version 6.0.0). ERα band intensity was normalized to that housekeeping protein for respective samples. The % ER remaining was calculated by normalizing against the vehicle control (as 100%).

[2] = tested on: subcutaneous MCF7-Y537S xenografts; experiment: In-vivo efficacy in MCF7-Y537S mice xenografts; set-up: species or system female athymic nude mice; conditions: for % Tumor growth inhibition compared to vehicle group after 28 days: p.o., once daily
Protocol: In-Vivo Efficacy of Compound of Formula I and Compound of Formula Ia: […]
The efficacy of the compound of Formula I and the compound of Formula Ia were evaluated in female athymic nude mice harboring subcutaneous MCF7-Y537S xenografts. Dose formulations of the compound of Formula I and the compound of Formula Ia were prepared in Tween 80 (0.4% v/v of the total volume of suspension) in 0.5% w/v carboxymethylcellulose (CMC) and administered once daily orally for 28 days. Two perpendicular diameters of tumor were measured with digital Vernier caliper. Tumor volume (V) was calculated using the following equation: V=(a^2×b)/2, where “a” is the width of the tumor (small diameter), and “b” the length (large diameter), both in millimeters. Tumors were monitored twice weekly and compared with a vehicle treated group.

Row | SMILES | SERD activity (in words) [1] | % of ER-α remaining at 1 nM [1] [%] | further results
1 | CC1=C(c2cc(F)cc(F)c2)C(c2ccc(C#CCN3CC(CF)C3)cc2)Oc2cc(O)ccc21 (racemic) [Compound 7, 3-(3,5-difluorophenyl)-2-[4-[3-[3-(fluoromethyl)azetidin-1-yl]prop-1-ynyl]phenyl]-4-methyl-2H-chromen-7-ol] | complete loss of SERD activity | 100 | –
2 | CC1=C(c2cc(F)cc(F)c2)C(c2ccc(/C=C/CN3CC(CF)C3)cc2)Oc2ccc(O)cc21 (racemic) [Compound 2, 3-(3,5-difluorophenyl)-2-[4-[(E)-3-[3-(fluoromethyl)azetidin-1-yl]prop-1-enyl]phenyl]-4-methyl-2H-chromen-6-ol] | complete loss of the SERD activity | 100 | –
3 | CC1=C(c2cc(F)cc(F)c2)C(c2ccc(/C=C/CN3CC(CF)C3)cc2)Oc2cc(O)ccc21 (racemic) [Formula I, 3-(3,5-difluorophenyl)-2-[4-[(E)-3-[3-(fluoromethyl)azetidin-1-yl]prop-1-enyl]phenyl]-4-methyl-2H-chromen-7-ol] | – | – | % Tumor growth inhibition compared to vehicle group after 28 days ([2]; 50 mg/kg): 46%; % Tumor growth inhibition compared to vehicle group after 28 days ([2]; 100 mg/kg): 57%; Tumor growth compared to the vehicle group (in words) ([2]; once daily orally for 28 days): significant reduction in the tumor growth
4 | CC1=C(c2cc(F)cc(F)c2)C(c2ccc(/C=C/CN3CC[C@@H](C)C3)cc2)Oc2cc(O)ccc21 (mixture of isomers) [Compound 5, 3-(3,5-difluorophenyl)-4-methyl-2-[4-[(E)-3-[(3R)-3-methylpyrrolidin-1-yl]prop-1-enyl]phenyl]-2H-chromen-7-ol] | negligible SERD activity | – | –

The next lines start with results.

Row | SERD activity (in words) [1] | % of ER-α remaining at 1 nM [1] [%] | SMILES | further results
5 | very negligible SERD activity | 80.8 | CC1=C(c2cc(F)cc(F)c2)C(c2ccc(/C=C\CN3CC(CF)C3)cc2)Oc2cc(O)ccc21 (racemic) [Compound 6, 3-(3,5-difluorophenyl)-2-{4-[(Z)-3-(3-fluoromethylazetidin-1-yl)propenyl]phenyl}-4-methyl-2H-chromen-7-ol] | –
6 | negligible SERD activity | – | CC1=C(c2cc(F)cc(F)c2)C(c2ccc(/C=C/CN3CC[C@@H](CF)C3)cc2)Oc2cc(O)ccc21 (mixture of isomers) [Compound 4, 3-(3,5-difluorophenyl)-2-[4-[(E)-3-[(3R)-3-(fluoromethyl)pyrrolidin-1-yl]prop-1-enyl]phenyl]-4-methyl-2H-chromen-7-ol] | –
7 | negligible SERD activity | – | CC1=C(c2cc(F)cc(F)c2)C(c2ccc(/C=C/CN3CCC(CF)CC3)cc2)Oc2cc(O)ccc21 (racemic) [Compound 3, 3-(3,5-difluorophenyl)-2-{4-[(E)-3-(4-fluoromethylpiperidin-1-yl)propenyl]phenyl}-4-methyl-2H-chromen-7-ol] | –
